From US9447093B2, “3,5-diarylazaindoles as DYRK1A protein inhibitors for the treatment of cognitive deficiencies associated with Down's syndrome and with Alzheimer's disease” (Centre National De La Recherche Scientifique, priority 2012, dated 2016)
pIC50: −log10 of the molar value.

What follows are molecules tested against T1, DYRK1A protein (Homo sapiens, UniProt Q13627) (assay: DYRK1A activity assay (fluorescein peptide substrate, UFLC with fluorescence detection)). Settings: DYRK1A protein, ΔDYRK1A enzyme, 37° C.
T1 construct: the peptide phosphorylated by His-DYRK1A-ΔC is separated from the unphosphorylated peptide; His (N)
Type: biochemical

| Molecule | pIC50 |
| --- | --- |
| c1ccc(-c2cnc3[nH]cc(-c4ccccc4)c3c2)cc1 [B, 3-phenyl-5-phenyl-1H-pyrrolo[2,3-b]pyridine] | 5.13 |
| Oc1ccc(-c2cnc3[nH]cc(-c4ccccc4)c3c2)cc1 [C, 3-phenyl-5-(4-hydroxyphenyl)-1H-pyrrolo[2,3-b]pyridine] | 6.49 |
| Oc1ccccc1-c1cnc2[nH]cc(-c3ccccc3)c2c1 [Compound A, 3-phenyl-5-(2-hydroxyphenyl)-1H-pyrrolo[2,3-b]pyridine] | 5.44 |
| Oc1ccc(-c2cnc3[nH]cc(-c4ccccc4)c3c2)cc1O [E, 3-phenyl-5-(3,4-dihydroxyphenyl)-1H-pyrrolo[2,3-b]pyridine] | 6.80 |
| Oc1ccc(-c2cnc3[nH]cc(-c4ccccc4)c3c2)c(O)c1 [F, 3-phenyl-5-(2,4-dihydroxyphenyl)-1H-pyrrolo[2,3-b]pyridine] | 6.81 |
| Oc1cccc(-c2cnc3[nH]cc(-c4cccc(O)c4)c3c2)c1 [Ia, 3-(3-hydroxyphenyl)-5-(3-hydroxyphenyl)-1H-pyrrolo[2,3-b]pyridine] | 6.98 |
| Oc1ccc(-c2cnc3[nH]cc(-c4ccc(O)cc4)c3c2)cc1 [Ib, 3-(4-hydroxyphenyl)-5-(4-hydroxyphenyl)-1H-pyrrolo[2,3-b]pyridine] | 7.64 |
| COc1ccc(-c2c[nH]c3ncc(-c4ccc(O)cc4)cc23)cc1F [Ic, 3-(3-fluoro-4-methoxyphenyl)-5-(4-hydroxyphenyl)-1H-pyrrolo[2,3-b]pyridine] | 7.38 |
| Oc1ccc(-c2c[nH]c3ncc(-c4ccc(O)cc4O)cc23)cc1 [I′a, 3-(4-hydroxyphenyl)-5-(2,4-dihydroxyphenyl)-1H-pyrrolo[2,3-b]pyridine] | 7.93 |
| Oc1ccc(-c2c[nH]c3ncc(-c4ccc(O)c(O)c4)cc23)cc1 [I′b, 3-(4-hydroxyphenyl)-5-(3,4-dihydroxyphenyl)-1H-pyrrolo[2,3-b]pyridine] | 8.52 |
| Oc1ccc(-c2cnc3[nH]cc(-c4ccc(O)c(O)c4)c3c2)cc1O [I′c, 3-(3,4-dihydroxyphenyl)-5-(3,4-dihydroxyphenyl)-1H-pyrrolo[2,3-b]pyridine] | 7.91 |
| Oc1ccc(-c2cnc3[nH]cc(-c4ccc(O)c(O)c4)c3c2)c(O)c1 [I′d, 3-(3,4-dihydroxyphenyl)-5-(2,4-dihydroxyphenyl)-1H-pyrrolo[2,3-b]pyridine] | 7.84 |
| Oc1ccc(O)c(-c2cnc3[nH]cc(-c4ccc(O)c(O)c4)c3c2)c1 [I′e, 3-(3,4-dihydroxyphenyl)-5-(2,5-dihydroxyphenyl)-1H-pyrrolo[2,3-b]pyridine] | 7.41 |
| Oc1ccc(-c2cnc3[nH]cc(-c4ccc(O)c(F)c4)c3c2)cc1 [I′h, 3-(3-fluoro-4-hydroxyphenyl)-5-(4-hydroxyphenyl)-1H-pyrrolo[2,3-b]pyridine] | 8.03 |

Same assay, conditions: validation of the test, compared with literature radioactive kinase tests

| Molecule | IC50 values for known DYRK1A inhibitors |
| --- | --- |
| epigallocatechin-3-gallate [reference compound] | Values similar to those of the literature |

Each molecule was assayed on CAMKII protein (assay: In vivo phosphorylation state of CAMKII in brain (slot-blot)). Settings: brain of TG animals (trisomy model for DYRK1A gene), intraperitoneal 1 mg/kg at t0 and t16 h, sacrifice t17-t18.
Procedure: (§1) To test in vivo the efficacy of these inhibitors, the effect of the compounds according to the invention on the phosphorylation state of two DYRK1A downstream targets in signaling pathways was measured: GSKIII beta protein (FIG. 1a) and CAMKII protein (FIG. 1b).
(§2) These measurements were carried out in the brain of control animals (WT) and of animals of an animal model of trisomy for DYRK1A gene (TG).
(§3) To that end, the compounds were administered by intraperitoneal injection in the amount of 1 mg/kg at t0 then at t16 (hours) and the animals were sacrificed at t17-t18. Brain proteins were then extracted and the amounts of GSKIIIbeta, pGSKIIIbeta, CAMKII and pCAMKII proteins were measured by a slot-blot technique with suitable antibodies.
(§4) The results of these tests are presented in FIG. 1: the y-axis represents the ratio of phosphorylated protein to unphosphorylated protein measured on the untreated animals (WT and TG) and on the animals treated with the compounds according to the invention.

| Molecule | correction of hypophosphorylated CAMKII (pCAMKII/CAMKII ratio) |
| --- | --- |
| Oc1ccc(-c2cnc3[nH]cc(-c4ccccc4)c3c2)cc1 [C, 3-phenyl-5-(4-hydroxyphenyl)-1H-pyrrolo[2,3-b]pyridine] | do not produce a sufficient correction |
| Oc1ccc(-c2cnc3[nH]cc(-c4ccc(O)cc4)c3c2)cc1 [Ib, 3-(4-hydroxyphenyl)-5-(4-hydroxyphenyl)-1H-pyrrolo[2,3-b]pyridine] | return the phosphorylation level to the value observed in the control animals |
| Oc1ccc(-c2c[nH]c3ncc(-c4ccc(O)cc4O)cc23)cc1 [I′a, 3-(4-hydroxyphenyl)-5-(2,4-dihydroxyphenyl)-1H-pyrrolo[2,3-b]pyridine] | return the phosphorylation level to the value observed in the control animals |
| Oc1ccc(-c2cnc3[nH]cc(-c4ccc(O)c(O)c4)c3c2)cc1O [I′c, 3-(3,4-dihydroxyphenyl)-5-(3,4-dihydroxyphenyl)-1H-pyrrolo[2,3-b]pyridine] | do not produce a sufficient correction |

The molecules below were run on GSKIII beta protein (assay: In vivo phosphorylation state of GSKIII beta in brain (slot-blot)). Settings: brain of TG animals (trisomy model for DYRK1A gene), intraperitoneal 1 mg/kg at t0 and t16 h, sacrifice t17-t18.
Procedure: as §1, §2, §3, §4

| Molecule | correction of hyperphosphorylated GSKIIIbeta (pGSK/GSK ratio) |
| --- | --- |
| Oc1ccc(-c2cnc3[nH]cc(-c4ccccc4)c3c2)cc1 [C, 3-phenyl-5-(4-hydroxyphenyl)-1H-pyrrolo[2,3-b]pyridine] | excessive correction |
| Oc1ccc(-c2cnc3[nH]cc(-c4ccc(O)cc4)c3c2)cc1 [Ib, 3-(4-hydroxyphenyl)-5-(4-hydroxyphenyl)-1H-pyrrolo[2,3-b]pyridine] | effective correction |
| Oc1ccc(-c2c[nH]c3ncc(-c4ccc(O)cc4O)cc23)cc1 [I′a, 3-(4-hydroxyphenyl)-5-(2,4-dihydroxyphenyl)-1H-pyrrolo[2,3-b]pyridine] | effective correction |
| Oc1ccc(-c2cnc3[nH]cc(-c4ccc(O)c(O)c4)c3c2)cc1O [I′c, 3-(3,4-dihydroxyphenyl)-5-(3,4-dihydroxyphenyl)-1H-pyrrolo[2,3-b]pyridine] | excessive correction |
